This note sets out measurements from PubChem BioAssay (NCI).

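96-well plates; 48 h exposure; 5 concentrations. Endpoints by linear interpolation between flanking doses. Not reached: highest tested concentration assigned. TGI: concentration producing complete growth inhibition.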 Where only a bound is given, the exact number is not on record here.

Common to all, as to assay: growth of human tumour cells (NCI), 48 h
For experiment [1], the system named is SNB-75 CNS.
Experiment [2] concerns RPMI-8226 leukemia.
The subject of experiment [3] is OVCAR-8 ovarian.
For experiment [4], the system named is UACC-257 melanoma.
The subject of experiment [5] is M14 melanoma.
Experiment [6] concerns NCI-H460 lung.
Experiment [7] relates to K-562 leukemia.
The subject of experiment [8] is UO-31 renal.
For experiment [9], the system named is MCF7 breast.
The test system of experiment [10] is HCT-15 colon.
Experiment [11] deals with COLO 205 colon.
Experiment [12] deals with SK-OV-3 ovarian.
The test system of experiment [13] is HCC-2998 colon.
Experiment [14] has as its system T-47D breast.
For experiment [15], the system named is SW-620 colon.
Experiment [16] has as its system ACHN renal.
Experiment [17] deals with U251 CNS.
Experiment [18] concerns TK-10 renal.

Turning to `CC[C@@]1(O)C(=O)OCc2c1cc1n(c2=O)Cc2c-1nc1ccccc1c2/C=N\NC(=O)C[n+]1ccccc1`, the TGI was over 28.2 µM in experiment [1]; over 100 µM in experiment [2]; over 68.7 µM in experiment [3]; over 84.5 µM in experiment [4]; 6.37 µM in experiment [5]; 9.75 µM in [6]. In addition, the TGI was over 100 µM in experiment [7]; 2.56 µM in experiment [8]; 16.2 µM in experiment [9]; over 100 µM in experiment [10]; over 100 µM in [11]; over 100 µM in experiment [12]. For the same compound, the TGI in experiment [13] is over 100 µM; in [14], 2.9 µM; in [15], over 100 µM; in experiment [16], 1.27 µM; in experiment [17], 32 µM; in [18] it was over 100 µM.

Regarding `C=CCN1C(=O)/C(=C/c2ccc(Cl)cc2)N=C1SC/C=C/C`, the TGI in [1] is over 100 µM; in experiment [2] it was 47.3 µM; in experiment [3], over 100 µM; in experiment [4], over 100 µM; in [5] it was over 100 µM; in [6] it was over 100 µM. Besides, the TGI in [7] is over 100 µM; in [8] it was over 100 µM; in experiment [9] it was 84.3 µM; in experiment [10] it was over 100 µM; in experiment [11] it was over 100 µM; in experiment [12], over 100 µM. For the same compound, the TGI was over 100 µM in [13]; over 100 µM in [14]; over 100 µM in experiment [15]; over 100 µM in [16]; 84.8 µM in experiment [17]; over 100 µM in experiment [18].

Turning to `NC(=O)NC1NC(=O)NC1=O` (stereo not given), the TGI in [1], in [2], in experiment [3], in experiment [4], in experiment [5] and in [6] was over 100 µM each time. Besides, the TGI in experiment [7], in [8], in [9], in experiment [10], in [11] and in experiment [12] was over 100 µM in each case. For the same compound, the TGI in [13], in experiment [14], in experiment [15], in experiment [16], in experiment [17] and in experiment [18] was over 100 µM in each case.

Turning to `CC(C)OC(=O)c1ccc(NCC2=CC(=O)C=CC2=O)cc1`, the TGI in [1] is 76.3 µM; in experiment [2] it was over 24.8 µM; in experiment [3], 29.7 µM; in [4], 27.2 µM; in [5], 28.3 µM; in [6], over 100 µM. Also, the TGI in experiment [7] was 7.39 µM; in experiment [8] it was 21.8 µM; in experiment [9], 27.3 µM; in experiment [10], 25.5 µM; in experiment [11], 13.7 µM; in [12], over 100 µM. For the same compound, the TGI in experiment [13] was determined as 38.2 µM; in experiment [14], 7.95 µM; in [15], 26.5 µM; in experiment [16] it was 24.3 µM; in experiment [17], 31.3 µM; in experiment [18], 28.6 µM.

Consider `O=C(Nc1ccc(Cl)cc1)c1cc(S(=O)(=O)Nc2n[nH]c(Nc3ccc4ccccc4c3)n2)c(SSc2cc(Cl)c(C(=O)Nc3ccc(Cl)cc3)cc2S(=O)(=O)Nc2n[nH]c(Nc3ccc4ccccc4c3)n2)cc1Cl`, for which the TGI was 76.6 µM in experiment [1]; over 74.7 µM in experiment [2]; over 71.9 µM in experiment [3]; over 96.4 µM in [4]; 59 µM in experiment [5]; 73.7 µM in experiment [6]. Also, the TGI in [7] is 47.3 µM; in [8], 65.3 µM; in [9], over 64 µM; in experiment [10], 43.7 µM; in experiment [11], 38.8 µM; in [12] it was 66.5 µM. Besides, the TGI was determined as 43.7 µM in experiment [13]; 43.6 µM in experiment [14]; 49.8 µM in experiment [15]; 53.9 µM in experiment [16]; 58.6 µM in [17]; 60.8 µM in experiment [18].

In the case of `C[C@]12CC[C@H]3[C@@H](CCC4=CC(=O)CC[C@@H]43)[C@@H]1CC[C@]2(O)C(N)=O`, the TGI in experiment [1], in experiment [2], in experiment [3], in experiment [4], in [5] and in [6] was over 100 µM each time. Moreover, the TGI in experiment [7], in experiment [8], in experiment [9], in experiment [10], in [11] and in experiment [12] was over 100 µM throughout. Besides, the TGI in [13], in [14], in experiment [15], in [16], in experiment [17] and in [18] was over 100 µM throughout.

In the case of `N=c1c2ccccc2nc2oc3cc([N+](=O)[O-])ccc3n12`, the TGI in [1] was 24.9 µM; in [2] it was over 100 µM; in [3], 51.2 µM; in experiment [4], over 100 µM; in experiment [5], over 100 µM; in experiment [6], over 100 µM. For the same compound, the TGI in experiment [7] is over 100 µM; in experiment [8], 32.3 µM; in [9] it was over 100 µM; in experiment [10], over 100 µM; in experiment [11] it was over 100 µM; in [12], 37.1 µM. Besides, the TGI in experiment [13] is over 100 µM; in experiment [14], 20.3 µM; in [15], over 100 µM; in experiment [16] it was 57.7 µM; in experiment [17], 29.6 µM; in [18], 36.6 µM.

Take `COc1nn(Cc2ccccn2)c2ccc([N+](=O)[O-])cc12`: the TGI in experiment [1] is 93 µM; in experiment [2], over 100 µM; in [3], over 100 µM; in experiment [4], over 100 µM; in [5], over 100 µM; in experiment [6], over 100 µM. The TGI in experiment [7], in [8], in experiment [9], in [10], in [11] and in [12] was over 100 µM each time. The TGI in experiment [13], in experiment [14], in [15], in [16], in experiment [17] and in experiment [18] was over 100 µM in each case.

Consider `COC(=O)C1C2OC(C)(C)OC2CN1S(=O)(=O)c1ccc(C)cc1` (stereo not given), for which the TGI in [1], in [2], in experiment [3], in experiment [4], in experiment [5] and in [6] was over 100 µM each time. Further, the TGI in [7], in experiment [8], in experiment [9], in [10], in experiment [11] and in [12] was over 100 µM in each case. The TGI in experiment [13], in experiment [14], in experiment [15], in experiment [16], in experiment [17] and in [18] was over 100 µM throughout.

For the compound `O=C1CSC(c2ccccc2)N1c1nc2cc3sc(N4C(=O)CSC4c4ccccc4)nc3cc2s1` (stereo not given), the TGI in experiment [1] is over 92.3 µM; in experiment [2], over 100 µM; in experiment [3], over 100 µM; in [4], over 100 µM; in experiment [5] it was over 100 µM; in experiment [6], over 100 µM. Further, the TGI is over 100 µM in experiment [7]; over 100 µM in experiment [8]; over 100 µM in [9]; over 100 µM in experiment [10]; over 26.9 µM in [11]; over 100 µM in [12]. Besides, the TGI in experiment [13], in experiment [14], in experiment [15], in experiment [16], in experiment [17] and in [18] was over 100 µM in each case.
